The source of these data is ChEMBL document CHEMBL3301361, “Experimental in vitro DMPK and physicochemical data on a set of publicly disclosed compounds”.

This data set in a line: physchem. To be noted: octan-1-ol/water, pH 7.4.

As to `CC(C)[C@@H](CN1CCCCC1)N(C)C(=O)Cc1ccc(Cl)c(Cl)c1`, the logD came out at 2.87.

In turn, `COc1ccc(C(CN2CCCC2)N(C)C(=O)Cc2ccc(Cl)c(Cl)c2)c(OC)c1` (configuration not stated) registered a logD of 3.07.

For the compound `CC(O)C(C)OC(=O)[C@@H]1CC2c3cccc4c3c(cn4C(C)C)CC2N(C)C1` (some centres not stated), the logD was found to be 2.8.

Turning to `CN1CC=C(c2cccc(O)c2)CC1`, the logD stood at 0.53.

`CN(C)C(=O)N[C@H]1CC[C@H](CN2[C@@H]3CC[C@H]2C[C@@H](Oc2cccc(C(N)=O)c2)C3)CC1`: the logD is -0.07.

`CN(C)C(=O)N[C@H]1CC[C@H](CCN2[C@@H]3CC[C@H]2C[C@@H](Oc2cccc(C(N)=O)c2)C3)CC1` yielded a logD of 0.12.

On to `CN(C)C(=O)N[C@H]1CC[C@@H](CCN2[C@@H]3CC[C@H]2C[C@@H](Oc2cccc(C(N)=O)c2)C3)CC1`, for which the logD came to 0.22.

In turn, `NC(=O)c1cccc(C[C@H]2C[C@H]3CC[C@@H](C2)N3Cc2ccccc2)c1` yielded a logD of 1.19.

In turn, `NC(=O)c1cccc(C[C@@H]2C[C@H]3CC[C@@H](C2)N3Cc2ccccc2)c1` showed a logD of 1.11.

`NC(=O)c1cccc(N[C@H]2C[C@H]3CC[C@@H](C2)N3Cc2ccccc2)c1` displayed a logD of 1.01.

`NC(=O)c1cncc(O[C@H]2C[C@H]3CC[C@@H](C2)N3Cc2ccccc2)n1` registered a logD of 1.1. The logD values of the last two compounds are within 0.2 log units of each other.

`NC(=O)c1ccc(O[C@H]2C[C@H]3CC[C@@H](C2)N3Cc2ccccc2)nc1` came in with a pH-dependent lipophilicity (logD) of 1.25.

Compound `Oc1ccnc2ccccc12` registered a logD of 0.8.

As to `CCN(CC)C(=O)c1ccc(C(c2cccc3cccnc23)N2CCNCC2)cc1` (configuration not stated), the logD was 0.7.

Compound `Cc1ccnc(NCc2ccc(Cl)cc2)c1` returned a logD of 3.6.

Turning to `COc1ccccc1Cn1c(C)nc2ccccc21`, the logD was found to be 3.47.

In turn, `CC(=O)NC1CC2CCCC(C1)N2C(=O)Nc1ccc(Cl)c(C(F)(F)F)c1` (configuration not stated) showed a logD of 2.79.

For `Nc1ccc2nc(-c3ccc(O)cc3)sc2c1`, the logD was 3.1.

With `O=c1c2ccccc2nc2n1CCS2(=O)=O`, the logD is 0.8.

As to `COc1cccc(COCC(O)CN2CCC(C(N)=O)CC2)c1` (configuration not stated), the logD was -0.5.

`Cc1cc(O)nc(-n2nc(C)c(Oc3ccccc3O)c2C)n1` registered a pH-dependent lipophilicity (logD) of 1.4.

The compound `CC(=O)Nc1ccc(S(=O)(=O)Nc2ccc(Cc3ccncc3)cc2)cc1` came in with a logD of 2.8.

On to `Cc1cc(C)n(-c2cccc(Cl)c2C#N)n1`, for which the pH-dependent lipophilicity (logD) was 3.

Consider `C1CCC(NC2CCCCC2)CC1`, for which the logD was -0.38.

`CCCCCc1ccc(-c2nnc(N)s2)cc1` had a logD of 4.13.

In turn, `COc1ccc(-n2cnc3cc(NS(=O)(=O)c4ccccc4)ccc32)cc1` returned a logD of 3.7.

In turn, `Nc1ccc(C2(c3ccc(N)cc3)CCCCC2)cc1` returned a logD of 3.2.

As to `CC1(C)CC(=O)c2c(nc3ccccc3c2N)C1`, the logD was found to be 3.

`CCOC(=O)c1c(C)n(Cc2ccco2)c2ccc(O)cc12` showed a logD of 3.5.

The compound `Nc1ncnc2oc(-c3ccoc3)c(-c3ccco3)c12` had a logD of 3.1.

As for `Cc1ccc(CN2C(=O)CCSc3ccc(Cl)cc32)cc1`, the log distribution coefficient (logD) turned out to be 3.7.

Compound `CC(C)(C)c1ccc(C2=NC(=O)C(CC(=O)O)S2)cc1` (configuration not stated) returned a logD of -0.1.

`CCCNC(=O)c1nnc2c(-c3cncc(C(=O)N4CCC4)c3)cccc2c1N` showed a logD of 2.79.

On to `CC(C)[C@@H]1N=C(c2ccccc2)c2ccccc2NC1=O`, for which the logD was 3.05.

Turning to `COc1ccc(C=C2SC(=O)NC2=O)cc1OC`, the logD was determined as 1.17.

Compound `Cn1c(=O)n(Cc2ccc(Br)cc2)c2ccccc21` came in with a logD of 2.81.

In turn, `Cc1ccc(-c2nnc(O)c3ccccc23)c(C)c1` displayed a logD of 3.41.

Consider `Cn1nnc(-c2ccc(-c3ccc(N4C[C@H](COc5ccon5)OC4=O)cc3F)cn2)n1`, for which the logD worked out at 1.24.

Regarding `N#Cc1cccc(-c2ccc(C3(CNC(=O)Nc4cc(Cl)cc(Cl)c4)CCN(CC4CC4)CC3)cc2)c1`, the logD turned out to be 3.37.

For the compound `O=C(O)CCC(=O)N1CCC(c2nc(-c3cccs3)no2)CC1`, the logD is -1.27.

`COc1cc(F)ccc1-c1cncc(C2CCCN2)c1` (configuration not stated) returned a pH-dependent lipophilicity (logD) of 1.1.

For `CCCNC(=O)c1nnc2c(-c3cnc(OC)nc3OC)cccc2c1N`, the logD stood at 3.26.

In turn, `CCCNC(=O)c1nnc2c(-c3cnccc3OC)cccc2c1N` registered a logD of 2.83.

`CCCNC(=O)c1nnc2c(-c3cc(C)ccc3OC)cccc2c1N`: the logD was 3.99.

`Cc1nc(-c2ccc(CN3CCC(n4c(=O)[nH]c5ccccc54)CC3)cc2)c(-c2ccccc2)[nH]c1=O` had a pH-dependent lipophilicity (logD) of 3.8. The logD values of the last two compounds are within 0.2 log units of each other.

On to `O=C(O)c1cn(C2CC2)c2cc(=[N+]3CCN(C(=O)CC[N+](=O)[O-])CC3)c(F)cc-2c1[O-]`, for which the pH-dependent lipophilicity (logD) was 0.22.

`Oc1ccc(Br)c2ccccc12` returned a logD of 4.3.

Take `CC(O)c1ccc2c(c1)N(CCN1CCC(NCc3ccc4c(n3)NC(=O)CO4)CC1)C(=O)CO2` (configuration not stated): the logD was found to be 0.25.

`O=C1COc2ccc(CNC3CCN(CCN4C(=O)COc5ccc(O)cc54)CC3)nc2N1` displayed a logD of 0.52.

`COC(=O)c1ccc2c(c1)N(CCN1CCC(NCc3ccc4c(n3)NC(=O)CO4)CC1)C(=O)CO2` came in with a logD of 0.83.

`CC(=O)c1ccc2c(c1)N(CCN1CCC(NCc3ccc4c(n3)NC(=O)CO4)CC1)C(=O)CO2` came in with a logD of 0.37.

Take `O=C(Cc1cccc2ccccc12)Nc1ccccc1`: the log distribution coefficient (logD) came out at 3.9.

`O=C(Cc1c(C(=O)O)[nH]c2ccccc12)Nc1cccc(C(F)(F)F)c1` showed a logD of 1.33.

`Cc1ccc(-c2cc(C(=O)N3CCOCC3)c3cc(C)ccc3n2)cc1`: the logD was found to be 3.6.

In turn, `CC(C)C1NCCc2c1sc1ccccc21` (configuration not stated) registered a logD of 2.8.

Turning to `CCN(CC)C(=O)c1ccc([C@H](c2cccc(NC(=O)C3CC3)c2)N2CCN(Cc3ccc(F)cc3)CC2)cc1`, the pH-dependent lipophilicity (logD) stood at 3.99.

Take `CN(CCO)C(=O)c1ccc([C@H](c2cccc(NC(=O)C3CC3)c2)N2CCN(Cc3ccc(F)cc3)CC2)cc1`: the logD was determined as 3.38.

As to `O=C(Nc1cccc([C@@H](c2ccc(C(=O)N3CCC3)cc2)N2CCN(Cc3ccc(F)cc3)CC2)c1)C1CC1`, the logD turned out to be 3.58.

Compound `CCN(C)C(=O)c1ccc([C@H](c2cccc(NC(=O)C3CCC3)c2)N2CCN(Cc3cccnc3)CC2)cc1` returned a logD of 3.27.

Regarding `CCOC(=O)Nc1cccc([C@@H](c2ccc(C(=O)N3CCC3)cc2)N2CCN(Cc3cccnc3)CC2)c1`, the logD amounted to 3.02.

`CCN(C)C(=O)c1ccc(C(=C2CCN(Cc3ccc(F)cc3)CC2)c2ccccc2NC(C)=O)cc1` had a pH-dependent lipophilicity (logD) of 2.79.

`O=C(c1ccc(C(=C2CCN(Cc3cscn3)CC2)c2cccc3cccnc23)cc1)N1CCCC1`: the logD turned out to be 2.75. This logD and that of the compound before are within 0.2 log units of each other.

The compound `CN1CCC[C@H]1c1ccccn1` gave a logD of 0.44.

In turn, `c1cncc(-c2ccc(-c3nnc(C4CN5CCC4CC5)o3)o2)c1` (configuration not stated) gave a logD of 1.2.

The compound `C[C@@H]1CN(C(=O)OC(C)(C)C)CCN1c1ncc(OCc2ccc(S(C)(=O)=O)cc2)cn1` had a logD of 3.6.

In turn, `CC(C)(C)OC(=O)N1CCN(c2ncc(OCc3ccncc3C#N)cn2)CC1` showed a logD of 2.81.

`c1ccc(C2CCNCC2)cc1` registered a logD of 0.54.

As to `Nc1nc(Nc2ccc3nc(-c4ccc(F)cc4)cc(N)c3c2)cc(-c2ccc(C(F)(F)F)cc2)n1`, the logD was 1.54.

In the case of `CN1Cc2ccccc2C(c2ccc(Cl)cc2)C1` (configuration not stated), the logD was determined as 3.64.

For the compound `O=C(NCC1CCOCC1)c1nc(OS(=O)(=O)CCC(F)(F)F)ccc1NC(=O)c1ccc(Cn2ccnn2)c2ccccc12`, the logD was determined as 4.2.

In the case of `O=C(NCC1CCOCC1)c1ncccc1NC(=O)c1cccc2ccccc12`, the logD worked out at 4.4.

As to `CN1CC=CCC(c2ccc(Cl)c(Cl)c2)C1` (configuration not stated), the log distribution coefficient (logD) was 3.32.

For the compound `CCOc1ccc(-n2c(CC)nc3ccccc3c2=O)cc1`, the logD was determined as 3.27.

`CCC(CO)NCCNC(CC)CO` (configuration not stated): the log distribution coefficient (logD) is -1.42.

Take `CCN(CC)C(=O)c1ccc(C(=C2CCNCC2)c2ccccc2OC)cc1`: the logD was found to be 1.

`c1ccc2c(OCC3=NCCN3)cccc2c1` registered a logD of 0.68.

Take `C[C@@H]1C2CCCC1(c1cccc(O)c1)CCN2C` (some centres not stated): the log distribution coefficient (logD) came to 0.52. This logD and that of the compound before are within 0.2 log units of each other.

In turn, `Oc1cc(Cl)cc(Cl)c1` yielded a logD of 3.58.

Regarding `CN(C(=O)Cc1ccc(Cl)c(Cl)c1)C(CN1CCCC1)c1ccccc1` (configuration not stated), the logD worked out at 3.38.

Turning to `COC(=O)C1C(OC(=O)c2ccccc2)CC2CCC1N2C` (configuration not stated), the logD worked out at 1.06.

`CN1CCC(C#N)(c2cccc3ccccc23)CC1`: the logD was determined as 2.73.

With `COc1cc(C(=O)N2CC[C@](CCN3CCC(C(N)=O)(c4ccccc4)CC3)(c3ccc(Cl)c(Cl)c3)C2)cc(OC)c1OC`, the logD came out at 3.23.

The compound `O=C(O)c1cc2ccccc2n1Cc1ccccc1` returned a logD of 0.78.

In the case of `NC(Cc1ccccc1)c1ccccc1` (configuration not stated), the logD turned out to be 1.32.

As for `O=C1O[C@]2(CN3CCC2CC3)CN1c1cccs1`, the logD was 0.9.

The compound `O=C(N[C@H]1CN2CCC1CC2)c1ccc(-c2ccccn2)s1` displayed a logD of 0.7.

In the case of `CCCCCCCCCC(=O)N[C@@H](Cc1c[nH]c2ccccc12)C(=O)N[C@H](CC(N)=O)C(=O)N[C@@H](CC(=O)O)C(=O)N[C@@H]1C(=O)NCC(=O)N[C@@H](CCCN)C(=O)N[C@@H](CC(=O)O)C(=O)N[C@H](C)C(=O)N[C@@H](CC(=O)O)C(=O)NCC(=O)N[C@H](CO)C(=O)N[C@@H]([C@H](C)CC(=O)O)C(=O)N[C@@H](CC(=O)c2ccccc2N)C(=O)O[C@@H]1C`, the logD is -0.94.

With `CNC1=Nc2ncccc2C(c2ncco2)=NC1c1cccs1` (configuration not stated), the logD is 1.14.

Consider `CCNC1=Nc2ccccc2C(c2ccccc2)=NC1c1cccs1` (configuration not stated), for which the logD stood at 3.98.

Compound `CC(=O)N(C)c1ccccc1` came in with a logD of 1.1.

For `CNC(=O)c1ccc(Nc2nccc(-c3cnc(C4CC4)n3C(C)C)n2)cc1`, the logD worked out at 2.77.

`CNC1=Nc2ncccc2C(c2ccco2)=NC1c1ccns1` (configuration not stated) had a logD of 1.44.

For `Cc1ccc(OC(=O)N2CCN3CCC2CC3)cc1`, the logD came to 1.02.

`COc1ccc2c3c1OC1C(O)C=CC4C(C2)N(C)CCC341` (configuration not stated) displayed a logD of 0.8.

The compound `COc1cc2c(c(OC)c1OC)-c1ccc(OC)c(=O)cc1C(NC(C)=O)CC2` (configuration not stated) yielded a log distribution coefficient (logD) of 1.12.

In turn, `Cc1cc(N)c2cc(NC(=O)CC(=O)Nc3ccc4nc(C)cc(N)c4c3)ccc2n1` had a logD of 1.35.

`CN(C)CC/C=C1\c2ccccc2Sc2ccc(Cl)cc21` registered a logD of 3.42.
